In PMC8429728, “TNK1 is a ubiquitin-binding and 14-3-3-regulated kinase that can be targeted to block tumor growth” (Nature Communications, 2021):
Where two headings read alike, the source gives them in different places.

Experiments:
Experiment in all cases: biochemical
Set-up in all cases: Reaction Biology 371-kinase panel at Km ATP, per cent enzyme activity relative to DMSO, single dose in duplicate
FYN = FYN (Homo sapiens, UniProt P06241); settings: duplicate measurements, Km ATP
Summary of the method: (§1)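 Activity of each kinase, normalised to DMSO-treated controls, served as the read-out. The inhibitor was tested at 300 nM against 371 kinases in vitro. Curves fitted by variable-slope sigmoidal dose-response, constrained to a bottom of 0, gave IC50.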

MSK2/RPS6KA4 = MSK2/RPS6KA4 (Homo sapiens, UniProt O75676); settings: duplicate measurements, Km ATP
Summary of the method: as §1

PKCd = target: T1, PKCd (Homo sapiens, UniProt Q05655); settings: duplicate measurements, Km ATP
T1 construct: gene PRKCD
Summary of the method: as §1

MAPKAPK3 = MAPKAPK3 (Homo sapiens, UniProt Q16644); settings: duplicate measurements, Km ATP
MAPKAPK3, sequence (Q16644 whole entry): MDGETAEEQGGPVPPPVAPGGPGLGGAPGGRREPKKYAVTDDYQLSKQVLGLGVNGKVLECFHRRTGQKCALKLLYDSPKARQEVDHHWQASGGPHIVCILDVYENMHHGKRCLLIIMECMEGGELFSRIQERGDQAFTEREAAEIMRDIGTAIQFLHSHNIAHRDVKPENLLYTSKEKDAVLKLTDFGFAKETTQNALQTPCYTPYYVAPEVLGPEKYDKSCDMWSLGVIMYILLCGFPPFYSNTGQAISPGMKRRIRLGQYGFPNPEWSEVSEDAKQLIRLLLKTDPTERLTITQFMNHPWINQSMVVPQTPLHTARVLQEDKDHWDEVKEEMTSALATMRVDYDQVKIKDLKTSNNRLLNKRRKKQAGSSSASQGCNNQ
Summary of the method: as §1

CDK5/P25 = target: T2, CDK5/P25 (Homo sapiens, UniProt Q00535); settings: duplicate measurements, Km ATP
T2 construct: p25
Summary of the method: as §1

IR = target: T3, IR (Homo sapiens, UniProt P06213); settings: duplicate measurements, Km ATP
T3 construct: gene INSR
Summary of the method: as §1

CDK1/cyclin E = CDK1/cyclin E (Homo sapiens, UniProt P06493); settings: duplicate measurements, Km ATP
Summary of the method: as §1

RSK2 = target: T4, RSK2 (Homo sapiens, UniProt P51812); settings: duplicate measurements, Km ATP
T4 construct: gene RPS6KA3
Summary of the method: as §1

MLK4 = target: T5, MLK4 (Homo sapiens, UniProt Q5TCX8); settings: duplicate measurements, Km ATP; read-out: % Enzyme Activity (relative to DMSO controls) / TP-0005801 (0.3µM) / Data 1
T5 construct: gene MAP3K21
Summary of the method: as §1

PKD2/PRKD2 = PKD2/PRKD2 (Homo sapiens, UniProt Q9BZL6); settings: duplicate measurements, Km ATP
PKD2/PRKD2, sequence (Q9BZL6 whole entry): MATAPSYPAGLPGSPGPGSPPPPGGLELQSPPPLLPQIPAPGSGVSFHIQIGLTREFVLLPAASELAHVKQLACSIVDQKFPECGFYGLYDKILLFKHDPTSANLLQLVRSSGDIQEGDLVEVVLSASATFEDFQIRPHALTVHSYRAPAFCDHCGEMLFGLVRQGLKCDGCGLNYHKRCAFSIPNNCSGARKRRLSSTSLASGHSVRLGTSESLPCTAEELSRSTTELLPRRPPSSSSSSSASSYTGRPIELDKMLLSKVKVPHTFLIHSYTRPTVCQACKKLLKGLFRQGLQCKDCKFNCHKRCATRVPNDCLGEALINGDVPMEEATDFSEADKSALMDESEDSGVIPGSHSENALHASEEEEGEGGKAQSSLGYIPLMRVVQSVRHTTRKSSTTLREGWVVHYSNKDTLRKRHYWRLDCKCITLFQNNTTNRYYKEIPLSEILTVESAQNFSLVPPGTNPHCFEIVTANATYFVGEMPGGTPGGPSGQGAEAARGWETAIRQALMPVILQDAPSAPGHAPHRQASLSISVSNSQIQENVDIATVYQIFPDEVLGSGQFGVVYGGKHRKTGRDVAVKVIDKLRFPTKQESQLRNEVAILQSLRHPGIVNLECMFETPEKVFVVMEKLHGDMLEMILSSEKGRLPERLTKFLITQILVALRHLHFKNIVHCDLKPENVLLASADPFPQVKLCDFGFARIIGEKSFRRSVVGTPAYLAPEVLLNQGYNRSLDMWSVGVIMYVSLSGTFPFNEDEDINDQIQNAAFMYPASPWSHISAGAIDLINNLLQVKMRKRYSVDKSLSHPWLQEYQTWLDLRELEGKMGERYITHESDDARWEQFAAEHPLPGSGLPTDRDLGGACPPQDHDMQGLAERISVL
Summary of the method: as §1

STK22D/TSSK1 = target: T6, STK22D/TSSK1 (Homo sapiens, UniProt Q9BXA7); settings: duplicate measurements, Km ATP
T6 construct: gene TSSK1B
Summary of the method: as §1

ALK4/ACVR1B = ALK4/ACVR1B (Homo sapiens, UniProt P36896); settings: duplicate measurements, Km ATP
Summary of the method: as §1

CAMK1g = CAMK1g (Homo sapiens, UniProt Q96NX5); settings: duplicate measurements, Km ATP
Summary of the method: as §1

MAPKAPK2 = MAPKAPK2 (Homo sapiens, UniProt P49137); settings: duplicate measurements, Km ATP
Summary of the method: as §1

GSK3a = GSK3a (Homo sapiens, UniProt P49840); settings: duplicate measurements, Km ATP
GSK3a, sequence (P49840 whole entry): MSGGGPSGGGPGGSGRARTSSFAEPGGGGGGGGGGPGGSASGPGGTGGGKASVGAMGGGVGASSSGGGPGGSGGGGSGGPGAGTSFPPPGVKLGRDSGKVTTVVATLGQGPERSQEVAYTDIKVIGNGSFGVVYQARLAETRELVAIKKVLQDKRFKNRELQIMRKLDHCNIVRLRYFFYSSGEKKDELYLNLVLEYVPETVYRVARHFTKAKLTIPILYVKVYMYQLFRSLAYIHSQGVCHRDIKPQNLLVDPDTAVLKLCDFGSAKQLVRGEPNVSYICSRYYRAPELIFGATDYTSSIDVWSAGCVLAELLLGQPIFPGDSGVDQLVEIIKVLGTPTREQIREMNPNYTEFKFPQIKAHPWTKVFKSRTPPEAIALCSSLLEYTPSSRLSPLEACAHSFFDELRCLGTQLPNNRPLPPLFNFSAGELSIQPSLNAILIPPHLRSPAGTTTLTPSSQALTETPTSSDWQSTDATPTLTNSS
Summary of the method: as §1

TSSK3/STK22C = TSSK3/STK22C (Homo sapiens, UniProt Q96PN8); settings: duplicate measurements, Km ATP
TSSK3/STK22C, sequence (Q96PN8 whole entry): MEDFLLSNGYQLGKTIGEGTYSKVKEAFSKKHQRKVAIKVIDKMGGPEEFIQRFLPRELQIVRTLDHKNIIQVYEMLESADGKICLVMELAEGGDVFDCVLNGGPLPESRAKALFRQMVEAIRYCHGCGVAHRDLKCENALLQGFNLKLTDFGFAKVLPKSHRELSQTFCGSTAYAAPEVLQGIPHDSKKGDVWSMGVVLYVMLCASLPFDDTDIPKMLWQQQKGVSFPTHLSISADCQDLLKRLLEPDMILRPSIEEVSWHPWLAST
Summary of the method: as §1

MUSK = MUSK (Homo sapiens, UniProt O15146); settings: duplicate measurements, Km ATP
MUSK, sequence (O15146 whole entry): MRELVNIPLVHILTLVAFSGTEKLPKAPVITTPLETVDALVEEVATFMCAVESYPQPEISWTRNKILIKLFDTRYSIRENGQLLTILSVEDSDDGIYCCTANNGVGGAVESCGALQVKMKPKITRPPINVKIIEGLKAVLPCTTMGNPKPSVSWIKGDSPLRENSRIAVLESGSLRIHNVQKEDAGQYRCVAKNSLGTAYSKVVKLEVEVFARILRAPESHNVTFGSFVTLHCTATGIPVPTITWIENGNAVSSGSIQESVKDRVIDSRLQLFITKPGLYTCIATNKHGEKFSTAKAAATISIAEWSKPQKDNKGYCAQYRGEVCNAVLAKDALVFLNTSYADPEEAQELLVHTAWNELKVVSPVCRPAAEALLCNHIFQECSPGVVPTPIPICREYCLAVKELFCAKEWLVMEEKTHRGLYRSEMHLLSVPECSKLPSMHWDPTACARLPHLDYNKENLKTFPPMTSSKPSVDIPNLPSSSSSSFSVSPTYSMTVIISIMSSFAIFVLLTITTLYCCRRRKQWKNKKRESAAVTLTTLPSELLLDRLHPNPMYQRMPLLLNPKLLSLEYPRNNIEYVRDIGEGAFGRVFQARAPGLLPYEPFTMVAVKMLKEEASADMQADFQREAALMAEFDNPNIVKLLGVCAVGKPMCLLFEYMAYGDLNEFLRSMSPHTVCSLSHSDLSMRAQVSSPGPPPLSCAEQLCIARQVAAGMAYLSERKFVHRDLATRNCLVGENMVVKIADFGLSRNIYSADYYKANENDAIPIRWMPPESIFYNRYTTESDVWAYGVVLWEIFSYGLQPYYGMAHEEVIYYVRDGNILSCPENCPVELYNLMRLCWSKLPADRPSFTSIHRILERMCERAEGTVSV
Summary of the method: as §1

DDR1 = DDR1 (Homo sapiens, UniProt Q08345); settings: duplicate measurements, Km ATP
DDR1, sequence (Q08345 whole entry): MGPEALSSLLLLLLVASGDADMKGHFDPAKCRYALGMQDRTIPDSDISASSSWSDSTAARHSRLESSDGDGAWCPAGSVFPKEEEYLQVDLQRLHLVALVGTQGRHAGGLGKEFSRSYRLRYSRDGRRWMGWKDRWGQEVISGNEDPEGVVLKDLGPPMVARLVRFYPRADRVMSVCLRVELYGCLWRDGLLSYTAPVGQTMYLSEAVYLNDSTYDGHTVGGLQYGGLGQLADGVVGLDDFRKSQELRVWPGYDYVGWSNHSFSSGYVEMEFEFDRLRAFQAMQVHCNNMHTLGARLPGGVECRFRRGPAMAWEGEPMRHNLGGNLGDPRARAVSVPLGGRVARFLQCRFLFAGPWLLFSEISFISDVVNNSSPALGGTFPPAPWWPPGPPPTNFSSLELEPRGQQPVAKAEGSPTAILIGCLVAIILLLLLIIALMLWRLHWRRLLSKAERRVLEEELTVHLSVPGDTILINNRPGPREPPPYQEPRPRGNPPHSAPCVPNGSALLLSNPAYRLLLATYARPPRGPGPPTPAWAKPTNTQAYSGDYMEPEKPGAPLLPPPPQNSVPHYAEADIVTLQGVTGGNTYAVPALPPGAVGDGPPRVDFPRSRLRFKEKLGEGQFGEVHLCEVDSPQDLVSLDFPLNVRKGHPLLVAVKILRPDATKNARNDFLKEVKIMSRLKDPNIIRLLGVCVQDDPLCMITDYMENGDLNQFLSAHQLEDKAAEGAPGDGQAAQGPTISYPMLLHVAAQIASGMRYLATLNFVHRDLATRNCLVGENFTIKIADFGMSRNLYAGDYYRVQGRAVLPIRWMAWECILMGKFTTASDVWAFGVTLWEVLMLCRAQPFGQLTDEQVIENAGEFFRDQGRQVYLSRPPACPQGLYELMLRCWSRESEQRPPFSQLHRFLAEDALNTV
Summary of the method: as §1

CDK16/cyclin Y (PCTAIRE) = CDK16/cyclin Y (PCTAIRE) (Homo sapiens, UniProt Q00536); settings: duplicate measurements, Km ATP
Summary of the method: as §1

ABL2/ARG = ABL2/ARG (Homo sapiens, UniProt P42684); settings: duplicate measurements, Km ATP
ABL2/ARG, sequence (P42684 whole entry): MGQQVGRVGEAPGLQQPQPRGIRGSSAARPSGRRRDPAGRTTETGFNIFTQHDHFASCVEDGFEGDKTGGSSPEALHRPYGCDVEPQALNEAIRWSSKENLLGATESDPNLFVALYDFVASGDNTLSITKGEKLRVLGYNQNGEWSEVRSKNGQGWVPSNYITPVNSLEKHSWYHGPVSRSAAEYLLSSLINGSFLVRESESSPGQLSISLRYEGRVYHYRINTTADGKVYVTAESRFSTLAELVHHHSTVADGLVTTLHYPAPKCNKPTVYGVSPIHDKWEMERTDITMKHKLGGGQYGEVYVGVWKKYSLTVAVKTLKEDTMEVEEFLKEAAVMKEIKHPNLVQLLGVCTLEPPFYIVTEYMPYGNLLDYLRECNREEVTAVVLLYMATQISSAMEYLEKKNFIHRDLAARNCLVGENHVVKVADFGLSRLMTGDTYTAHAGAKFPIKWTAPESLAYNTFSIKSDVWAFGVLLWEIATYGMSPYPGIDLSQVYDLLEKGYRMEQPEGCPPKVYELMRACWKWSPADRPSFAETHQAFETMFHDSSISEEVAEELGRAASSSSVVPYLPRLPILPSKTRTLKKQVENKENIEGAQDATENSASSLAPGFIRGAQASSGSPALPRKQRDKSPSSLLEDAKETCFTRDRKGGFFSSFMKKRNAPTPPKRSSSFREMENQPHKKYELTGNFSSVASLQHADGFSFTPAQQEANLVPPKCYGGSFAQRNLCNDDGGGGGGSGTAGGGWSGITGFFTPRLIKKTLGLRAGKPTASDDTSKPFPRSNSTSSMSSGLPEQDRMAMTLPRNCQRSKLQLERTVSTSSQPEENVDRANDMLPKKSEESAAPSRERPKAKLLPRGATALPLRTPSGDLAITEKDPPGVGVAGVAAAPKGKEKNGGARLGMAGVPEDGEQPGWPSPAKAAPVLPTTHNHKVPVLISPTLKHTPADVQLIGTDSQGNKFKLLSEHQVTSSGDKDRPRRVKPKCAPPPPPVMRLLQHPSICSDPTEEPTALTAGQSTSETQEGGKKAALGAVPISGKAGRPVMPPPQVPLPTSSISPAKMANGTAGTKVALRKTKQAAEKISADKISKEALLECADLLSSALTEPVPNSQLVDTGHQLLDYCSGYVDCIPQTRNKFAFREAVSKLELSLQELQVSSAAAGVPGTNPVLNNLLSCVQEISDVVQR
Summary of the method: as §1

[1] = read-out: % Enzyme Activity (relative to DMSO controls) / TP-0005801 (0.3µM) / Data 1
[2] = read-out: % Enzyme Activity (relative to DMSO controls) / TP-0005801 (0.3µM) / Data 2

How did the remaining activity at 0.3 µM (FYN; [1]) turn out when `COc1cc(N2CCN(C)CC2)c(C)cc1Nc1ncc(Br)c(Nc2cccnc2N(C)C)n1` [TP-5801] was run?
Its remaining activity at 0.3 µM is 108%.

What about the remaining activity at 0.3 µM (FYN; [2]) of the same molecule?
Its remaining activity at 0.3 µM is 105%.

And the remaining activity at 0.3 µM (MSK2/RPS6KA4; [1])?
The remaining activity at 0.3 µM was 99%.

What about the remaining activity at 0.3 µM (MSK2/RPS6KA4; [2]) of the same molecule?
The remaining activity at 0.3 µM was 95%.

What about the remaining activity at 0.3 µM (PKCd; [1]) of the same molecule?
Its remaining activity at 0.3 µM is 113%.

What about the remaining activity at 0.3 µM (PKCd; [2]) of the same molecule?
Its remaining activity at 0.3 µM is 99.7%.

And the remaining activity at 0.3 µM (MAPKAPK3; [1])?
The remaining activity at 0.3 µM was 104%.

And the remaining activity at 0.3 µM (MAPKAPK3; [2])?
Its remaining activity at 0.3 µM is 103%.

And the remaining activity at 0.3 µM (CDK5/P25; [1])?
Its remaining activity at 0.3 µM is 123%.

And the remaining activity at 0.3 µM (CDK5/P25; [2])?
Its remaining activity at 0.3 µM is 115%.

And the remaining activity at 0.3 µM (IR; [1])?
Its remaining activity at 0.3 µM is 3%.

And the remaining activity at 0.3 µM (IR; [2])?
Its remaining activity at 0.3 µM is 2.81%.

And the remaining activity at 0.3 µM (CDK1/cyclin E; [1])?
Its remaining activity at 0.3 µM is 97.2%.

And the remaining activity at 0.3 µM (CDK1/cyclin E; [2])?
The remaining activity at 0.3 µM was 94.9%.

What about the remaining activity at 0.3 µM (RSK2; [1]) of the same molecule?
The remaining activity at 0.3 µM was 90.5%.

What about the remaining activity at 0.3 µM (RSK2; [2]) of the same molecule?
The remaining activity at 0.3 µM was 84.9%.

What about the remaining activity at 0.3 µM (MLK4) of the same molecule?
The remaining activity at 0.3 µM was 106%.

And the remaining activity at 0.3 µM (PKD2/PRKD2; [1])?
Its remaining activity at 0.3 µM is 66.5%.

What about the remaining activity at 0.3 µM (PKD2/PRKD2; [2]) of the same molecule?
The remaining activity at 0.3 µM was 64.3%.

What about the remaining activity at 0.3 µM (STK22D/TSSK1; [1]) of the same molecule?
The remaining activity at 0.3 µM was 10.4%.

And the remaining activity at 0.3 µM (STK22D/TSSK1; [2])?
The remaining activity at 0.3 µM was 8.14%.

And the remaining activity at 0.3 µM (ALK4/ACVR1B; [1])?
The remaining activity at 0.3 µM was 86.9%.

And the remaining activity at 0.3 µM (ALK4/ACVR1B; [2])?
Its remaining activity at 0.3 µM is 85%.

And the remaining activity at 0.3 µM (CAMK1g; [1])?
Its remaining activity at 0.3 µM is 99%.

What about the remaining activity at 0.3 µM (CAMK1g; [2]) of the same molecule?
The remaining activity at 0.3 µM was 97.4%.

What about the remaining activity at 0.3 µM (MAPKAPK2; [1]) of the same molecule?
The remaining activity at 0.3 µM was 99%.

What about the remaining activity at 0.3 µM (MAPKAPK2; [2]) of the same molecule?
Its remaining activity at 0.3 µM is 96.4%.

And the remaining activity at 0.3 µM (GSK3a; [1])?
Its remaining activity at 0.3 µM is 97.1%.

What about the remaining activity at 0.3 µM (GSK3a; [2]) of the same molecule?
Its remaining activity at 0.3 µM is 95.8%.

What about the remaining activity at 0.3 µM (TSSK3/STK22C; [1]) of the same molecule?
Its remaining activity at 0.3 µM is 97.1%.

What about the remaining activity at 0.3 µM (TSSK3/STK22C; [2]) of the same molecule?
The remaining activity at 0.3 µM was 94.6%.

What about the remaining activity at 0.3 µM (MUSK; [1]) of the same molecule?
Its remaining activity at 0.3 µM is 62%.

And the remaining activity at 0.3 µM (MUSK; [2])?
Its remaining activity at 0.3 µM is 57.2%.

And the remaining activity at 0.3 µM (DDR1; [1])?
Its remaining activity at 0.3 µM is 74.4%.

What about the remaining activity at 0.3 µM (DDR1; [2]) of the same molecule?
The remaining activity at 0.3 µM was 74.1%.

And the remaining activity at 0.3 µM (CDK16/cyclin Y (PCTAIRE); [1])?
Its remaining activity at 0.3 µM is 99.8%.

What about the remaining activity at 0.3 µM (CDK16/cyclin Y (PCTAIRE); [2]) of the same molecule?
Its remaining activity at 0.3 µM is 97.2%.

And the remaining activity at 0.3 µM (ABL2/ARG; [1])?
The remaining activity at 0.3 µM was 93.2%.

What about the remaining activity at 0.3 µM (ABL2/ARG; [2]) of the same molecule?
Its remaining activity at 0.3 µM is 91.6%.
